What was measured:
K562 cells [1] = experiment: cells; conditions: Homo sapiens, colony formation
K562 cells [2] = experiment: Cytotoxicity of dasatinib in proliferating vs quiescent K562 cells (FIG. 3); format: cell-based; conditions: Homo sapiens
quiescent K562 cultures = conditions: concentrations readily achievable in the clinic

Cc1nc(Nc2ncc(C(=O)Nc3c(C)cccc3Cl)s2)cc(N2CCN(CCO)CC2)n1 [dasatinib, ′N-(2-Chloro-6-methylphenyl)-2-[[6-[4-(2-hydroxyethyl)-1-piperazinyl]-2-methyl-4-pyrimidinyl]amino]-5-thiazolecarboxamide]
IC50 (K562 cells [1]; K562, proliferating K562 cells): < 1 nM | IC50 (K562 cells [1]; K562, quiescent K562 cultures (nutrient depletion)): > 12 nM | IC50 (K562 cells [2]; K562, proliferating K562 cells (FIG. 3)): 0.69 nM | IC50 (K562 cells [2]; K562, quiescent K562 cells (FIG. 3)): > 11.2 nM | % cell kill (quiescent K562 cultures): 0%

— patent US20060235006A1, “Combinations, methods and compositions for treating cancer” (priority 2005, published 2006)
